Data as given in patent publication US5395947A, “Platinum(II) complex and processes for preparing the same” (Sunkyong Industries, Ltd., priority 1991, dated 1995).

How the values were obtained:
[1] = test system: murine leukemia L1210 cells; assay: Growth inhibition test on cultured murine leukemia L1210 cells; format: cell-based; conditions: 48 hours, 37° C., Trypan blue viability
Outline: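 Read-out is Trypan blue (0.17%) viability versus compound-free controls. Cells, 1×10^5, were cultured 48 h at 37° C under 5% CO2 in RPMI 1640/10% FCS containing various compound concentrations.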

murine leukemia L1210 = assay: Antitumor activity test on murine leukemia L1210 in vivo; set-up: species or system male BDF1 mice; conditions: days 1, 5, 9
Outline: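 Male BDF1 mice (6 weeks, 21±3 g; n=7) received 1×10^6 leukemia cells into the peritoneum on day 0, then test compound suspended or dissolved in 0.5% CMC i.p. on days 1, 5, 9. Activity expressed as T/C %, mean survival treated versus 0.5% CMC-injected controls.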

Test for nephrotoxicity = format: in vivo, male ICR mice
Procedure: 4. Test for nephrotoxicity
The compounds of the present invention were dissolved or suspended in 0.5% CMC solution(in water) and were administered intraperitoneally one time to 8-week-old male ICR mice weighing 30±3 g. Each treatment and control groups consisted of six mice.
The administration amount of the test compound was 1.5 times the optimum dose obtained in Table 2, or more. On days 1, 4 and 8 after administration, their blood was collected under ether anesthesia for measurement of blood urea nitrogen concentration (BUN value) and creatinine concentration.
A pair of kidneys were taken and, after immediate weighing, were stored in a 10% neutral buffered formalin solution. The body weight ratio shown in Table 5 is a ratio of the body weight measured on days 1, 4 and 8 from the administration of the compound to the body weight measured on the administration day.

ICR mice = assay: Acute toxicity test; format: in vivo; set-up: Lethality: unit not given here; conditions: for Lethality: 10080 min
Outline: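 Single i.p. administration to ICR mice (7 weeks old, both sexes, n=6/group); appearance and mortality logged over 7 days, dead animals autopsied for gross pathology.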

With `CCC1(CC)OC2C[NH2+][Pt-2]3([NH2+]CC2O1)[O]C(=O)CC(=O)[O]3` [Example 37, cis-malonato[(4R,5R)-4,5-bis(aminomethyl)-2,2-diethyl-1,3-dioxolane]platinum(II)] the “IC50 (concentration required for 50% inhibition of growth)” value [1] was 0.42 µg/mL, the “T/C (%)” value (murine leukemia L1210; 12.5 mg/kg i.p.) was 130% and the “T/C (%)” value (murine leukemia L1210; 25 mg/kg i.p.) was 180%. The “T/C (%)” value (murine leukemia L1210; 50 mg/kg i.p.) was 231%, the “BUN, 1st day” value (Test for nephrotoxicity; 75.0 mg/kg i.p. once) was 27.5 mg/100 ml and the “BUN, 4th day” value (Test for nephrotoxicity; 75.0 mg/kg i.p. once) was 26.4 mg/100 ml. For the same compound, the “BUN, 8th day” value (Test for nephrotoxicity; 75.0 mg/kg i.p. once) was 28.4 mg/100 ml.
For `CC(C)C1OC(CN)C(CN)O1.CC1[O][Pt][O]C1=O` [Example 19, (L-lactato-O,O')[(4R,5R)-4,5-bis(aminomethyl)-2-isopropyl-1,3-dioxolane]platinum(II)], the “IC50 (concentration required for 50% inhibition of growth)” value [1] was 0.29 µg/mL, the “T/C (%)” value (murine leukemia L1210; 12.5 mg/kg i.p.) was 208% and the “T/C (%)” value (murine leukemia L1210; 25 mg/kg i.p.) was 232%. For the same compound, the “T/C (%)” value (murine leukemia L1210; 50 mg/kg i.p.) was “toxic”, the “BUN, 1st day” value (Test for nephrotoxicity; 18.8 mg/kg i.p. once) was 38.6 mg/100 ml and the “BUN, 4th day” value (Test for nephrotoxicity; 18.8 mg/kg i.p. once) was 27.9 mg/100 ml. For the same compound, the “BUN, 8th day” value (Test for nephrotoxicity; 18.8 mg/kg i.p. once) was 50.7 mg/100 ml, the “Number of dead mice for 7 days” value (ICR mice; female, 41.3 mg/kg i.p.) was 2/6 and the “Number of dead mice, 1st day” value (ICR mice; female, 41.3 mg/kg i.p.) was 0/6. The “Number of dead mice, 5th day” value (ICR mice; female, 41.3 mg/kg i.p.) was 1/6, the “Number of dead mice, 6th day” value (ICR mice; female, 41.3 mg/kg i.p.) was 1/5 and the Lethality (ICR mice; female, 41.3 mg/kg i.p.) was 33.3. The “Number of dead mice for 7 days” value (ICR mice; female, 54.9 mg/kg i.p.) was 4/6, the “Number of dead mice, 1st day” value (ICR mice; female, 54.9 mg/kg i.p.) was 0/6 and the “Number of dead mice, 3rd day” value (ICR mice; female, 54.9 mg/kg i.p.) was 1/6. The “Number of dead mice, 4th day” value (ICR mice; female, 54.9 mg/kg i.p.) was 2/5, the “Number of dead mice, 5th day” value (ICR mice; female, 54.9 mg/kg i.p.) was 1/3 and the Lethality (ICR mice; female, 54.9 mg/kg i.p.) was 66.7. The “Number of dead mice for 7 days” value (ICR mice; female, 71.4 mg/kg i.p.) was 5/6, the “Number of dead mice, 1st day” value (ICR mice; female, 71.4 mg/kg i.p.) was 0/6 and the “Number of dead mice, 4th day” value (ICR mice; female, 71.4 mg/kg i.p.) was 1/6. The “Number of dead mice, 5th day” value (ICR mice; female, 71.4 mg/kg i.p.) was 3/5, the “Number of dead mice, 6th day” value (ICR mice; female, 71.4 mg/kg i.p.) was 1/2 and the Lethality (ICR mice; female, 71.4 mg/kg i.p.) was 83.3. For the same compound, the “Number of dead mice for 7 days” value (ICR mice; female, 91.8 mg/kg i.p.) was 6/6, the “Number of dead mice, 1st day” value (ICR mice; female, 91.8 mg/kg i.p.) was 0/6 and the “Number of dead mice, 2nd day” value (ICR mice; female, 91.8 mg/kg i.p.) was 1/6. For the same compound, the “Number of dead mice, 3rd day” value (ICR mice; female, 91.8 mg/kg i.p.) was 2/5, the “Number of dead mice, 4th day” value (ICR mice; female, 91.8 mg/kg i.p.) was 2/3 and the “Number of dead mice, 5th day” value (ICR mice; female, 91.8 mg/kg i.p.) was 1/1. For the same compound, the Lethality (ICR mice; female, 91.8 mg/kg i.p.) was 100.0, the “Number of dead mice for 7 days” value (ICR mice; male, 41.3 mg/kg i.p.) was 3/6 and the “Number of dead mice, 1st day” value (ICR mice; male, 41.3 mg/kg i.p.) was 0/6. For the same compound, the “Number of dead mice, 5th day” value (ICR mice; male, 41.3 mg/kg i.p.) was 1/6, the “Number of dead mice, 6th day” value (ICR mice; male, 41.3 mg/kg i.p.) was 2/5 and the Lethality (ICR mice; male, 41.3 mg/kg i.p.) was 50.0. The “Number of dead mice for 7 days” value (ICR mice; male, 54.9 mg/kg i.p.) was 4/6, the “Number of dead mice, 1st day” value (ICR mice; male, 54.9 mg/kg i.p.) was 0/6 and the “Number of dead mice, 4th day” value (ICR mice; male, 54.9 mg/kg i.p.) was 1/6. For the same compound, the “Number of dead mice, 5th day” value (ICR mice; male, 54.9 mg/kg i.p.) was 2/5, the “Number of dead mice, 6th day” value (ICR mice; male, 54.9 mg/kg i.p.) was 1/3 and the Lethality (ICR mice; male, 54.9 mg/kg i.p.) was 66.7. The “Number of dead mice for 7 days” value (ICR mice; male, 71.4 mg/kg i.p.) was 5/6, the “Number of dead mice, 1st day” value (ICR mice; male, 71.4 mg/kg i.p.) was 0/6 and the “Number of dead mice, 4th day” value (ICR mice; male, 71.4 mg/kg i.p.) was 1/6. For the same compound, the “Number of dead mice, 5th day” value (ICR mice; male, 71.4 mg/kg i.p.) was 2/5, the “Number of dead mice, 6th day” value (ICR mice; male, 71.4 mg/kg i.p.) was 2/3 and the Lethality (ICR mice; male, 71.4 mg/kg i.p.) was 83.7. The “Number of dead mice for 7 days” value (ICR mice; male, 91.8 mg/kg i.p.) was 6/6, the “Number of dead mice, 1st day” value (ICR mice; male, 91.8 mg/kg i.p.) was 0/6 and the “Number of dead mice, 2nd day” value (ICR mice; male, 91.8 mg/kg i.p.) was 1/6. The “Number of dead mice, 3rd day” value (ICR mice; male, 91.8 mg/kg i.p.) was 4/5, the “Number of dead mice, 5th day” value (ICR mice; male, 91.8 mg/kg i.p.) was 1/1 and the Lethality (ICR mice; male, 91.8 mg/kg i.p.) was 100.0.
